Laboratory results from patent US11285156B2, “Substituted piperazines as KRAS G12C inhibitors” (Amgen Inc., priority 2018, dated 2022).
Like-named read-outs stand apart in the source and are kept apart here.

How the values were obtained:
[1] = test system: Phosphorylation of ERK1/2 in A549 cells; experiment: Phospho-ERK1/2 MSD assay in A549 cells; assay type: cell-based; conditions: read-out: p-ERK IC50 (2 h, A549; μM)
Method in brief: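 Readout: MSD phospho-ERK1/2 signal after compound (2 or 4 h) and 10 min EGF stimulation at 10 ng/mL.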

[2] = test system: Phosphorylation of ERK1/2 in MIA PaCa-2 cells; experiment: Phospho-ERK1/2 MSD assay in MIA PaCa-2 cells; assay type: cell-based; conditions: read-out: p-ERK IC50 (2 h, MiaPaCa-2; μM)
Method in brief: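 Phospho-ERK1/2 measured by MSD electrochemiluminescence kit in RIPA lysates of MIA PaCa-2 cells. Cells were treated with compound titrations for 2 or 4 h at 37 °C, 5% CO2, followed by a 10 min pulse of 10 ng/mL EGF.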

[3] = biological target: GDP-bound KRAS protein (aa 1-169), containing both G12C and C118A amino acid substitutions (Homo sapiens (Human), UniProt P01116, C118A/G12C); experiment: Coupled nucleotide exchange assay (SOS-mediated nucleotide exchange, AlphaScreen); assay type: biochemical; conditions: 5 min compound pre-incubation; for IC50: read-out: Coupled exchange IC50 (5 min; μM)
[4] = Homo sapiens, A549, 2 h, 2 h compound treatment, A549 cells, EGF stimulated
[5] = Homo sapiens, MIA PaCa-2, 2 h, 2 h compound treatment, MIA PaCa-2 cells, EGF stimulated

Chain of GDP-bound KRAS protein (aa 1-169), containing both G12C and C118A amino acid substitutions (P01116 other isoform, or with tags, fused parts or gaps G12C/C118A): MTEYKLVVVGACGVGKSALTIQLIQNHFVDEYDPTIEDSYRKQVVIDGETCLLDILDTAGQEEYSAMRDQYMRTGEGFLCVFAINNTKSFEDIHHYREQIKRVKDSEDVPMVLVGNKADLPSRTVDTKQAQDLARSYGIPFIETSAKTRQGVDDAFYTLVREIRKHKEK

Coupled exchange IC50 (5 min; μM) [3] | IC50 ([1]; 2 h compound treatment, A549 cells, EGF stimulated) | IC50 ([2]; 2 h compound treatment, MIA PaCa-2 cells, EGF stimulated) | Structure (SMILES) | IC50 [1, 4] | IC50 [2, 5] | IC50 [3] | IC50 ([1]; Homo sapiens, A549, 2 h) | IC50 ([2]; Homo sapiens, MIA PaCa-2, 2 h)
0.038 µM | – | – | C=CC(=O)N1C[C@H](C)N(c2nc(=O)n(-c3c(C(C)C)nc(NC(C)=O)nc3C(C)C)c3nc(-c4ccccc4F)c(Cl)cc23)C[C@H]1C [Example 188, N-[5-[6-Chloro-4-[(2S,5R)-2,5-dimethyl-4-prop-2-enoyl-piperazin-1-yl]-7-(2-fluorophenyl)-2-oxo-pyrido[2,3-d]pyrimidin-1-yl]-4,6-diisopropyl-pyrimidin-2-yl]acetamide] | 4.98 µM | 0.04 µM | – | – | –
– | – | – | C=CC(=O)N1C[C@H](C)N(c2nc(=O)n(-c3c(N)ncnc3C(C)C)c3nc(-c4ccccc4F)c(Cl)cc23)C[C@H]1C [Example 189, 4-((2S,5R)-4-Acryloyl-2,5-dimethylpiperazin-1-yl)-1-(4-amino-6-isopropylpyrimidin-5-yl)-6-chloro-7-(2-fluorophenyl)pyrido[2,3-d]pyrimidin-2(1H)-one] | > 7.5 µM | 0.209 µM | 0.158 µM | – | –
0.126 µM | – | – | C=CC(=O)N1C[C@H](C)N(c2nc(=O)n(-c3c(N)ncnc3C(C)C)c3nc(-c4c(O)cccc4F)c(Cl)cc23)C[C@H]1C [Example 190, 4-((2S,5R)-4-Acryloyl-2,5-dimethylpiperazin-1-yl)-1-(4-amino-6-isopropylpyrimidin-5-yl)-6-chloro-7-(2-fluoro-6-hydroxyphenyl)pyrido[2,3-d]pyrimidin-2(1H)-one] | > 7.5 µM | 1.71 µM | – | – | –
0.029 µM | – | – | C=CC(=O)N1C[C@H](C)N(c2nc(=O)n(-c3c(N)ncnc3C(C)C)c3nc(-c4c(N)cccc4F)c(Cl)cc23)C[C@H]1C [Example 192, 4-((2S,5R)-4-Acryloyl-2,5-dimethylpiperazin-1-yl)-7-(2-amino-6-fluorophenyl)-1-(4-amino-6-isopropylpyrimidin-5-yl)-6-chloropyrido[2,3-d]pyrimidin-2(1H)-one] | > 7.5 µM | 0.161 µM | – | – | –
– | – | – | C=CC(=O)N1C[C@H](C)N(c2nc(=O)n(-c3c(C)nc(C)nc3C(C)C)c3nc(-c4ccccc4F)c(Cl)cc23)C[C@H]1C [Example 193, 4-((2S,5R)-4-Acryloyl-2,5-dimethylpiperazin-1-yl)-6-chloro-7-(2-fluorophenyl)-1-(4-isopropyl-2,6-dimethylpyrimidin-5-yl)pyrido[2,3-d]pyrimidin-2(1H)-one] | > 7.5 µM | 0.055 µM | 0.056 µM | – | –
– | – | – | C=CC(=O)N1C[C@H](C)N(c2nc(=O)n(-c3c(C)ncnc3C(C)C)c3nc(-c4ccccc4F)c(Cl)cc23)C[C@H]1C [Example 194, 4-((2S,5R)-4-Acryloyl-2,5-dimethylpiperazin-1-yl)-6-chloro-7-(2-fluorophenyl)-1-(4-isopropyl-6-methylpyrimidin-5-yl)pyrido[2,3-d]pyrimidin-2(1H)-one] | > 7.5 µM | 0.048 µM | 0.186 µM | – | –
– | – | – | C=CC(=O)N1C[C@H](C)N(c2nc(=O)n(-c3c(C(C)C)cnnc3C(C)C)c3nc(-c4ccccc4F)c(Cl)cc23)C[C@H]1C [Example 205, 4-((2S,5R)-4-Acryloyl-2,5-dimethylpiperazin-1-yl)-6-chloro-1-(3,5-diisopropylpyridazin-4-yl)-7-(2-fluorophenyl)pyrido[2,3-d]pyrimidin-2(1H)-one] | > 7.5 µM | 0.095 µM | 0.08 µM | – | –
0.098 µM | > 7.5 µM | 0.139 µM | C=CC(=O)N1[C@H](C)CN(c2nc(=O)n(-c3c(C(C)C)cnnc3C(C)C)c3nc(-c4ccccc4F)c(Cl)cc23)C[C@@H]1C [Example 206-2, 4-(cis-4-Acryloyl-3,5-dimethylpiperazin-1-yl)-6-chloro-1-(3,5-diisopropylpyridazin-4-yl)-7-(2-fluorophenyl)pyrido[2,3-d]pyrimidin-2(1H)-one] | – | – | – | – | –
0.231 µM | – | – | C=CC(=O)N1C[C@H](C)N(c2nc(=O)n(-c3ccc(S(C)(=O)=O)cc3C(C)C)c3nc(-c4ccccc4F)c(Cl)cc23)C[C@H]1C [Example 208, 4-((2S,5R)-4-Acryloyl-2,5-dimethylpiperazin-1-yl)-6-chloro-7-(2-fluorophenyl)-1-(2-isopropyl-4-(methylsulfonyl)phenyl)pyrido[2,3-d]pyrimidin-2(1H)-one] | > 7.5 µM | 0.14 µM | – | – | –
0.049 µM | – | – | C=CC(=O)N1C[C@H](C)N(c2nc(=O)n(-c3c(C)ccnc3C(C)C)c3nc(-c4ccccc4S(C)(=O)=O)c(Cl)cc23)C[C@H]1C [Example 210, 4-((2S,5R)-4-Acryloyl-2,5-dimethylpiperazin-1-yl)-6-chloro-1-(2-isopropyl-4-methylpyridin-3-yl)-7-(2-(methylsulfonyl)phenyl)pyrido[2,3-d]pyrimidin-2(1H)-one] | > 7.5 µM | 0.039 µM | – | – | –
– | – | – | C=CC(=O)N1C[C@H](C)N(c2nc(=O)n(-c3c(C)cc([S+](C)[O-])cc3C(C)C)c3nc(-c4ccccc4C)c(Cl)cc23)C[C@H]1C (stereo partly drawn) [Example 213, 4-((2S,5R)-4-Acryloyl-2,5-dimethylpiperazin-1-yl)-6-chloro-1-(2-isopropyl-6-methyl-4-(methylsulfinyl)phenyl)-7-(o-tolyl)pyrido[2,3-d]pyrimidin-2(1H)-one] | > 7.5 µM | 0.104 µM | 0.182 µM | – | –
– | – | – | C=CC(=O)N1C[C@H](C)N(C2=NC(=O)CN(c3c(C)ccnc3C(C)C)c3nc(-c4ccccc4F)c(Cl)cc32)C[C@H]1C [Example 218, 5-((2S,5R)-4-Acryloyl-2,5-dimethylpiperazin-1-yl)-7-chloro-8-(2-fluorophenyl)-1-(2-isopropyl-4-methylpyridin-3-yl)-1,2-dihydro-3H-pyrido[2,3-e][1,4]diazepin-3-one] | – | – | 0.094 µM | > 7.5 µM | 0.035 µM
– | – | – | C=CC(=O)N1C[C@H](C)N(c2nc(=O)n(-c3c(C(C)C)nc(N)nc3C(C)C)c3nc(-c4ccccc4F)c(Cl)cc23)C[C@H]1C [Example 229, 4-((2S,5R)-4-Acryloyl-2,5-dimethylpiperazin-1-yl)-1-(2-amino-4,6-diisopropylpyrimidin-5-yl)-6-chloro-7-(2-fluorophenyl)pyrido[2,3-d]pyrimidin-2(1H)-one] | > 7.5 µM | 0.032 µM | 0.071 µM | – | –
